Values after ≈ are worked out from the molar mass of the structure shown. Values joined by “and” are separate entries in the source; they are usually repeats but may differ in a detail not shown here. Equal entries are not always repeated. Where two headings read alike, the source gives them in different places.

For data set [1] the following is noted: cited from earlier work.
For data set [2], the system named is SARS-CoV-2 (strain USA-WA1/2020). As to the kind of experiment: microbe, parasite or virus in culture. Format: cell-based. The note with it: for Average Log10 CCID50 virus per 0.2 mL: average of duplicate inserts; for Log10 Reduction in virus titer (CCID50) vs virus control / Log10 CCID50 virus per 0.2 mL: dNHBE cells.
Setting [3] is: 0.1 μM, single insert, day 5 after infection.

Turning to `CCOC(=O)C1=C(COCCN)NC(C)=C(C(=O)OC)C1c1ccccc1Cl` (racemic) [Amlodipine besylate, 3-Ethyl-5-methyl (±)-2-[(2-aminoethoxy)methyl]4-(2-chlorophenyl)-1,4-dihydro-6-methyl-3,5-pyridinedicarboxylate, monobenzenesulphonate], the solubility in ethanol entry in data set [1] (ethanol) was “sparingly soluble”. In addition, in data set [1] (water), the solubility in water entry is given as “slightly soluble”.

On to `CCOC(=O)C1=C(COCCN)NC(C)=C(C(=O)OC)C1c1ccccc1Cl` (centres unmarked) [Amlodipine], for which the “Average Log10 CCID50 virus per 0.2 mL” value in data set [2] (0.1 μM, day 5) is 3.6 Log10 CCID50 per 0.2 mL. The “Log10 Reduction in virus titer (CCID50) vs virus control” value in data set [2] (0.1 μM, day 5) is listed as 0.7 Log10; in data set [2] (0.1 μM, day 5, listed as amlodipine), about 1 Log10. Moreover, the “Log10 CCID50 virus per 0.2 mL” value in data set [2] (setting [3]) is 3.7 Log10 CCID50 per 0.2 mL and 3.5 Log10 CCID50 per 0.2 mL.

Regarding `CC#C[C@]1(O)CC[C@H]2[C@@H]3CCC4=CC(=O)CCC4=C3[C@@H](c3ccc(N(C)C)cc3)C[C@@]21C` [Mifepristone, 11β-(4-dimethylaminophenyl)-17β-hydroxy-17α-(1-propynyl)-estra-4,9-dien-3-one], the “Average Log10 CCID50 virus per 0.2 mL” value in data set [2] (5 μM, day 5) is 3.5 Log10 CCID50 per 0.2 mL. For the same compound, the “Log10 Reduction in virus titer (CCID50) vs virus control” value in data set [2] (5 μM, day 5) is 0.8 Log10; in data set [2] (5 μM, day 5, listed as mifepristone) it was about 1 Log10. In addition, the solubility is given as about 25 mg/mL (≈ 58.2 mM) in data set [1] (acidic media, pH 1.5) and “less than 1 mg/mL” in data set [1] (pH values above 2.5).

In the case of `CCC(CC)COC(=O)[C@H](C)N[P@](=O)(OC[C@H]1O[C@@](C#N)(c2ccc3c(N)ncnn23)[C@H](O)[C@@H]1O)Oc1ccccc1` [Remdesivir], the “Log10 CCID50 virus per 0.2 mL” value in data set [2] (0.001 μM, day 5) is 4.0 Log10 CCID50 per 0.2 mL; in data set [2] (0.01 μM, day 5), 3.3 Log10 CCID50 per 0.2 mL; in data set [2] (setting [3]), 2.7 Log10 CCID50 per 0.2 mL; in data set [2] (1.0 μM, day 5), 2.0 Log10 CCID50 per 0.2 mL. In addition, the EC90 in data set [2] (Severe acute respiratory syndrome coronavirus 2, Vero 76) was 9 nM; in data set [2] (Severe acute respiratory syndrome coronavirus 2, Vero 76, 120 h, read-out: EC90 (concentration to reduce virus yield by 1 log10, regression analysis) (converted)), 9 nM.

Values taken from US20230181598A1, “FORMULATIONS AND METHODS OF TREATING COVID-19 AND PREVENTING INFECTION WITH SARS-CoV-2” (priority 2020, published 2023).
